Source: EPA's ToxValDB 9.5 (doi:10.2903/j.efsa.2017.4722)
Values after ≈ are worked out from the molar mass of the structure shown.

Key:
Typhlodromus pyri = assay: LR50; higher = less toxic; conditions: acute; mortality
Colinus virginianus = conditions: for LD50: acute, oral, mortality
Canidae = conditions: oral, Dog Other
Neomysis kadiakensis = conditions: acute; duration: 96 hours; oral; feed; mortality
Daphnia magna = conditions: chronic/long-term; duration: 21 days; reproduction
Lepomis macrochirus = conditions: acute; duration: 96 hours; oral; feed; mortality
Anas platyrhynchos = conditions: acute; oral; unspecified; mortality
Apis mellifera = conditions: acute; oral; unspecified; mortality
Landoltia sp. = conditions: chronic/long-term; duration: 14 days; frond number
Pimephales promelas = conditions: chronic/long-term; duration: 35 days; other
Oncorhynchus mykiss = conditions: acute; duration: 96 hours; mortality

| Compound | LR50 (Typhlodromus pyri) | LD50 (Colinus virginianus; diet) | LD50 (Colinus virginianus) | NOEL (Colinus virginianus; reproduction developmental) | NOAEL (Canidae; chronic, duration: 1 years, neurology) | NOAEL (Canidae; subchronic, duration: 90 days, neurology) | LC50 (Tagia sp.; acute, duration: 14 days, mortality) | NOEC (Tagia sp.; chronic/long-term, duration: 56 days, reproduction) | LC50 (Neomysis kadiakensis) | NOEC (Daphnia magna) | LC50 (Lepomis macrochirus) | LD50 (Anas platyrhynchos) | LD50 (Apis mellifera) | NOEC (Landoltia sp.) | LD50 (Rattus norvegicus; acute, oral, mortality) | NOAEL (Rattus norvegicus; chronic, duration: 2 years, histopathology: nonneoplastic) | NOEC (Pimephales promelas) | NOAEL (Canidae; chronic, duration: 16 weeks, hematological) | LC50 (Oncorhynchus mykiss) |
| --- | --- | --- | --- | --- | --- | --- | --- | --- | --- | --- | --- | --- | --- | --- | --- | --- | --- | --- | --- |
| Cc1cc(C)nc(NC(=O)NS(=O)(=O)c2ccccc2C(=O)OC2COC2)n1 [Oxasulfuron] | 3.23 g/ha | > 1610 mg/kg-day | > 2250 mg/kg-day | 6.91 mg/kg-day | 1.3 mg/kg-day | 1.3 mg/kg-day | > 1000 mg/kg | 2 mg/kg | 82.6 mg/L (≈ 203 µM) | 14 mg/L | > 111 mg/L | > 2250 mg/kg-day | > 100 µg/piece | 0.0002 mg/L | > 5000 mg/kg-day | 8.3 mg/kg-day | 114 mg/L | – | – |
| OC1COC1 [Oxetan-3-ol] | – | – | – | – | – | – | – | – | – | – | – | – | – | – | – | – | – | 50 mg/kg-day | > 100 mg/L |
